The subject of test [1] is TNF-α. The test is described as follows: TNF-α production by HCLE cells in hyperosmolar medium (ELISA). It counts as cell-based, human. The settings on record: 10 mM, 500 mOsm, 16 h, vs hyperosmolar medium without osmolyte. The protocol:
Enzyme-linked immunosorbent assay (ELISA) was used to quantify TNF-α. The culture supernatants were collected, centrifuged at 1500 rpm for 10 min to remove cellular debris and stored at −80° C. until processed. Assays were performed according to manufacturer's protocol (R&D Systems, Minneapolis, Minn.).
Cultured human corneal limbal epithelial (HCLE) cells were exposed to culture medium with or without carnitine (10 mM) at 300 mOsm (isotonic), 450 mOsm (moderate), and 500 mOsm (hyperosmotic) for 16 h. Induction of apoptosis was detected by quantification of the proteolytic activity of caspase-8, caspase-9, or caspase-3/7 using caspase activity assays, and production of tumor necrosis factor (TNF)-α, a known apoptosis inducer, using ELISA. Annexin V and Propidium iodine (PI) staining was performed to detect the percentage of apoptotic cells using confocal microscopy and flow cytometry.
(ELISA stands for enzyme-linked immunosorbent assay.)

The test system of a further test is IL-17. In words: qRT-PCR of mouse conjunctiva, ICES dry eye model. In kind it is in vivo, C57BL/6 mice. The settings on record: normalized to GAPDH; for mRNA expression of IL-17 vs PBS treatment group: Schedule 1, Day 21, conjunctiva. An excerpt: (§1) For Schedule 1, six (6×) mice per each group at the end of Day 21 and five (5×) mice from each group at the end of Day 35 post-housing in ICES and undergoing the treatment were sacrificed with an overdose of a mixture of ketamine and xylazine for qRT-PCR evaluation of […] inflammatory responses. On the other hand, for Schedule 2, three (3×) mice were sacrificed at the end of Day 21, and all the other mice were sacrificed at the end of Day 35 post-housing in ICES and undergoing the treatment. Additionally, seven healthy animals which were not housed in ICES and received no treatment were euthanized as healthy controls for comparison.
(§2) For qRT-PCR detection of IL-1β, IL-6, IL-17, TNF-α, and GAPDH, total RNA from conjunctivas (2 eyes/group/schedule) were extracted and pooled from each of the five experimental groups using the RNA isolation kit according to the manufacturer's instructions (PicoPure RNA isolation kit, 40 isolations, Arcturus). cDNA was synthesized from 1-μg of total RNA using random primer and M-MuLV reverse transcriptase. The primer sequences for qRT-PCR detection of these mediators have been designed in preparation for qRT-PCR work (Table 1).
(§3) Expression of IL-1β, IL-6, IL-17, or TNF-α detected at mRNA level from Real-time PCR were normalized to that of the housekeeping gene GAPDH. Total RNA were collected from the pooled conjunctiva from 2 eyes of each group (total 6× eyes per each treatment group were used for qRT-PCR).
On the technique in general: Quantitative PCR measures a nucleic acid by following its amplification.

The next test concerns IL-6. The test is described as follows: qRT-PCR of mouse conjunctiva, ICES dry eye model. In kind it is in vivo, C57BL/6 mice. The settings on record: normalized to GAPDH; for mRNA expression of IL-6 vs PBS treatment group: Schedule 1, Day 21, conjunctiva.
Source text: as §1, §2, §3

The test system of another test is IL-1β. In words: qRT-PCR of mouse conjunctiva, ICES dry eye model. It counts as in vivo, C57BL/6 mice. The settings on record: normalized to GAPDH; for mRNA expression of IL-1β vs PBS treatment group: Schedule 1, Day 21, conjunctiva.
Source text: as §1, §2, §3

Test [2] concerns TNF-α. In words: qRT-PCR of mouse conjunctiva, ICES dry eye model. In kind it is in vivo, C57BL/6 mice. The settings on record: normalized to GAPDH; for mRNA expression of TNF-α vs PBS treatment group: Schedule 1, Day 21, conjunctiva.
Source text: as §1, §2, §3

In test [3] the test system is ICES-induced murine dry eye model. The test is described as follows: Corneal fluorescein staining in ICES-induced murine dry eye model. In kind it is in vivo, C57BL/6 mice. The conditions noted are these: for corneal staining from Day 21 to Day 35: Schedule 2, within-group change. An excerpt:
A total of 110 female C57BL/6 mice (age 4-6 weeks, from the Animal Breeding Unit of Wenzhou Medical College) were used in the study. These mice were carefully selected out of 350 mice by clinical examination using slit-lamp microscopy and corneal staining. Only those healthy mice with no corneal infections, infiltration or leukom, and with total scores of corneal fluorescein staining of less than 10, were selected for the study.
This study used the ICES-induced murine dry eye model in which relative humidity, airflow and temperature were maintained at 15.7±3.2% (mean±SD), 2.1±0.2 m/s and 21-24° C., respectively, and mice began developing dry eye conditions similar to those in humans from Day 21 post-housing (Chen et al A Murine Model of Dry Eye Induced by an Intelligently Controlled Environmental System. Investigative Ophthalmology & Visual Science, 2008: 49(4):1386-1391). The relative humidity and temperature of ICES systems were monitored daily.
Mice in different groups were labelled using ear marks. The mice were housed in cages (maximum of five animals per cage) and two independent cages were placed in each ICES system. Two schedules were used for topical administration of test compounds, Betaine (0.234% (10 mM) in sterile PBS) or Carnitine (0.25% (10 mM) in sterile PBS), or sterile PBS as a control. Mice without any topical treatment were used as another control. In the first schedule, compounds were administered to mice at the beginning of their housing in ICES (Schedule 1) to study the effect of these compounds on the development of dry eye. In the second schedule compound administration began after mice had been housed in ICES for 21 days (Schedule 2), by which time the dry eye condition had been developed (Chen et al. IOVS 2008), to study the effect of these compounds on treatment of dry eye. Compounds were administered topically to both eyes of the animal. The compound solution made in PBS was topically administered four times daily for up to a total of 35 days for Schedule 1, or 14 days for Schedule 2, during which the mice remained housed in ICES.
Four (4×) mice in each cage received individual treatment: A, B, C, D where A=Betaine (10 mM in PBS); B=Carnitine (10 mM in PBS); C=PBS only; D=No treatment.
The cornea was examined using slit-lamp microscopy with cobalt blue light immediately after fluorescein instillation. The stained area was assessed and graded using the 2007 Dry Eye Work Shop (DEW) recommended grading system. The mouse corneas were rated ranging from 0 to 4 with the cornea surface divided into five regions (0 dot, Grade 0; 1-5 dots, Grade 1; 6-15 dots, Grade 2; 16-30 dots, Grade 3; and […], Grade 4). The total score from the five regions was recorded.

Setting [4] is: Schedule 2, Day 35, conjunctiva.
Where [5] appears, read: Schedule 1, Day 14, 10 mM in PBS topically four times daily.
Where [6] appears, read: Schedule 1, Day 21, 10 mM in PBS topically four times daily.

“Also recorded” adds a separate entry of the source.

For `C[N+](C)(C)CC(O)CC(=O)[O-]` (stereo not shown) [carnitine, 3-hydroxy-4-(trimethylazaniumyl)butanoate], the “reduction in TNF-α levels” value with TNF-α [1] is given as 25%. Also, the “mRNA expression of IL-17 vs PBS treatment group” value in the test with IL-17 (listed as B) was “statistically significant reduction; also recorded: lowest expression level”. Moreover, the “mRNA expression of IL-17 vs PBS control (C)” value with IL-17 (setting [4]) is given as “statistically significant reduction”. In the test with IL-6 (listed as B), the “mRNA expression of IL-6 vs PBS treatment group” value is on record as “statistically significant reduction; also recorded: lowest expression level”. Also, the “mRNA expression of IL-6 vs PBS control (C)” value in the test on IL-6 (setting [4]) is “statistically significant reduction”. The “mRNA expression of IL-1β vs PBS treatment group” value with IL-1β (listed as B) is given as “statistically significant reduction; also recorded: lowest expression level”. Further, the “mRNA expression of IL-1β vs PBS control (C)” value in the test with IL-1β (setting [4]) is recorded as “statistically significant reduction”. In addition, the “mRNA expression of TNF-α vs PBS treatment group” value in the test with TNF-α [2] (listed as B) was “statistically significant reduction; also recorded: lowest expression level”. For the same compound, the “corneal staining vs control C (PBS only) or D (no treatment)” value in test [3] (setting [5]) and in test [3] (setting [6]) was “statistically significant reduction” throughout. Further, the “corneal staining vs control C or D” value in test [3] (Schedule 1, Day 35, 10 mM in PBS topically four times daily) is reported as “reduced corneal staining”. In addition, the “corneal staining vs controls C or D” value in test [3] (Schedule 2 (treatment from Day 22 after dry eye developed), Day 35) is “statistically significant reduction”. Also, the “corneal staining from Day 21 to Day 35” value in test [3] is on record as “statistically significant reduction”.

`C[N+](C)(C)CC(=O)[O-]` [betaine, trimethylglycine]: the “reduction in TNF-α levels” value with TNF-α [1] is 40%. The “mRNA expression of IL-17 vs PBS treatment group” value in the test on IL-17 is given as “statistically significant reduction”. Besides, the “mRNA expression of IL-6 vs PBS treatment group” value with IL-6 is given as “statistically significant reduction”. The “mRNA expression of IL-1β vs PBS treatment group” value in the test with IL-1β is recorded as “statistically significant reduction”. Besides, the “mRNA expression of TNF-α vs PBS treatment group” value in the test on TNF-α [2] is on record as “statistically significant reduction”. Moreover, the “mRNA expression of TNF-α vs PBS control (C)” value in the test on TNF-α [2] (setting [4]) is on record as “statistically significant reduction”. The “corneal staining vs control C (PBS only) or D (no treatment)” value in test [3] (setting [5]) and in test [3] (setting [6]) was “statistically significant reduction” throughout. In test [3], the “corneal staining from Day 21 to Day 35” value is recorded as “statistically significant reduction”.

The values are drawn from patent US10912752B2, “Methods and compositions for reducing ocular discomfort” (Brien Holden Vision Institute Limited, priority 2012, dated 2021).
